According to patent publication US12257247B2 (Monte Rosa Therapeutics AG, priority 2023, dated 2025):
Where two headings read alike, the source gives them in different places.

Molecular target: T1, VAV1 (Homo sapiens, UniProt P15498+Q96SW2)
T1 construct: A heterozygous VAV1 C-terminal HiBiT knock-in pool was generated at Monte Rosa Therapeutics from a clonal Jurkat cell; endogenous in cells; host or cells: Jurkat clone stably expressing LgBiT, homozygous GSPT1-G575N; heterozygous VAV1-HiBiT knock-in pool
Assay: VAV1 degradation activity, VAV1-HiBiT knock-in Jurkat luminescence assay (Example A, Table 1)
Assay type: cell-based
Conditions: VAV1-HiBiT knock-in Jurkat cells; for Dmax: Jurkat
Procedure: Cells were plated at 10,000 cells per well using Multiflo (BioTek) or Multi Drop Combi (Thermo Fisher) in 384-well white solid bottom plates (Corning, 3570BC) in 25 ul volume in RPMI 1640 media (Thermo Fischer, 22400105) containing 10% FBS (Corning, 35-075-CV), 1% Penicillin/Streptomycin (ThermoFisher Scientific, 15140-122), and 1% Endurazine (Nano-Glo Endurazine Live Cell Substrate (Promega, N2571)). Cells were incubated for ˜16 hours at 37° C., 5% CO2. 25 nL of a compound at 10 μM were dosed into the plate using an Echo® 650 liquid handler (Labcyte). Cells were incubated at 37° C., 5% CO2 and signal was read at 6 and 24 hours after compound addition on a Pherastar FSX using “LUM plus” optic module.
Analysis was performed in Scinamic (Scinamic, Cambridge, MA). Luminescence response (R) was calculated by the formula: response=100*(S−N)/(P−N) where S is the signal of the well, N and P the mean negative and positive control values respectively of the same plate. The luminescence response was then fitted in Scinamic using a 3-parameter agonist logistic fit (hillslope=1, EC50>0, top/bottom unconstrained).

[1] = luminescence read at 6 and 24 hours, read-out: VAV1 Dmax %
[2] = luminescence read at 6 and 24 hours, read-out: VAV1 Dmax %, class
[3] = luminescence read at 6 and 24 hours, read-out: VAV1 DC50
[4] = luminescence read at 6 and 24 hours, read-out: VAV1 DC50 (nM), class
[5] = luminescence read at 6 and 24 hours after compound addition, read-out: VAV1 Dmax %
[6] = luminescence read at 6 and 24 hours after compound addition, read-out: VAV1 Dmax %, class
[7] = luminescence read at 6 and 24 hours after compound addition, read-out: VAV1 DC50
[8] = luminescence read at 6 and 24 hours after compound addition, read-out: VAV1 DC50 (nM), class

| Dmax [1] [%] | Dmax [2] [%] | DC50 [3] [nM] | DC50 [4] [nM] | VAV1 Dmax %, class (luminescence read at 6 and 24 hours) | Dmax [5] [%] | Dmax [6] [%] | DC50 [7] [nM] | DC50 [8] [nM] | Compound |
| --- | --- | --- | --- | --- | --- | --- | --- | --- | --- |
| 71.7 | 60 to 90 | 234 | 100 to 1000 | – | – | – | – | – | O=C1CCC(c2cccc(-c3cnc(N4C(=O)CCC45CC5)c(F)c3)c2Cl)C(=O)N1 (centres unmarked) [Compound 364, 3-(2-chloro-3-(5-fluoro-6-(5-oxo-4-azaspiro[2.4]heptan-4-yl)pyridin-3-yl)phenyl)piperidine-2,6-dione] |
| 95 | > 90 | 11.5 | ≤ 100 | – | – | – | – | – | O=C1CCC(c2cccc(-c3ccc(N4COCCC4=O)cc3)c2Cl)C(=O)N1 (centres unmarked) [Compound 467, 3-(2-chloro-4′-(4-oxo-1,3-oxazinan-3-yl)-[1,1′-biphenyl]-3-yl)piperidine-2,6-dione] |
| 97.5 | > 90 | 4.87 | ≤ 100 | – | – | – | – | – | CC1(C)CCC(=O)N1c1ccc(-c2cccc(C3CCC(=O)NC3=O)c2Cl)cc1 (centres unmarked) [Compound 413, 3-(2-chloro-4′-(2,2-dimethyl-5-oxopyrrolidin-1-yl)-[1,1′-biphenyl]-3-yl)piperidine-2,6-dione] |
| 78 | 60 to 90 | 118 | 100 to 1000 | – | – | – | – | – | O=C1CCC(c2cccc(-c3ccc(CN4CCn5cncc5C4=O)cc3)c2Cl)C(=O)N1 (centres unmarked) [Compound 273] |
| – | – | – | – | – | 89.7 | 60 to 90 | 41 | ≤ 100 | O=C1CCC(c2cccc(-c3ccc4[nH]ncc4c3)c2Cl)C(=O)N1 (centres unmarked) [Compound 485, 3-[2-chloro-3-(1H-indazol-5-yl)phenyl]piperidine-2,6-dione] |
| 95.7 | > 90 | 8.3 | ≤ 100 | – | – | – | – | – | O=C1CCC(c2cccc(-c3ccc(CN4C(=O)CCCC45CC5)cc3)c2Cl)C(=O)N1 (centres unmarked) [Compound 294] |
| 31 | < 60 | ≥ 10000 | > 1000 | – | – | – | – | – | Cn1ccc(COc2ncc(-c3cccc(C4CCC(=O)NC4=O)c3Cl)cn2)n1 (centres unmarked) [Compound 479, 3-(2-chloro-3-(2-((1-methyl-1H-pyrazol-3-yl)methoxy)pyrimidin-5-yl)phenyl)piperidine-2,6-dione] |
| – | – | – | – | – | 89.2 | 60 to 90 | 78.6 | ≤ 100 | Cn1ccc(Cc2noc3cc(-c4cccc(C5CCC(=O)NC5=O)c4Cl)ccc23)n1 (centres unmarked) [Compound 510, 3-(2-chloro-3-(3-((1-methyl-1H-pyrazol-3-yl)methyl)benzo[d]isoxazol-6-yl)phenyl)piperidine-2,6-dione] |
| 97.1 | > 90 | 4.86 | ≤ 100 | – | – | – | – | – | Cn1ccc(Cn2c(=O)n(C)c3cc(-c4cccc(C5CCC(=O)NC5=O)c4Cl)ccc32)n1 (centres unmarked) [Compound 363, 3-(2-chloro-3-(3-methyl-1-((1-methyl-1H-pyrazol-3-yl)methyl)-2-oxo-2,3-dihydro-1H-benzo[d]imidazol-5-yl)phenyl)piperidine-2,6-dione] |
| 95.5 | > 90 | 14.8 | ≤ 100 | – | – | – | – | – | [2H]c1c([2H])c(-n2ccccc2=O)c([2H])c([2H])c1-c1cccc(C2CCC(=O)NC2=O)c1Cl (centres unmarked) [Compound 462, 3-(2-chloro-3-(2,3,5,6-tetradeuterio-4-(2-oxo-1-pyridyl)phenyl)phenyl)piperidine-2,6-dione] |
| 69.5 | 60 to 90 | 269 | 100 to 1000 | – | – | – | – | – | O=C1CCC(c2cccc(-c3ccc(CN4CCn5ccnc5C4=O)cc3)c2Cl)C(=O)N1 (centres unmarked) [Compound 274] |
| 94 | > 90 | 21.5 | ≤ 100 | – | – | – | – | – | O=C1CCC(c2cccc(-c3ccc(N4CCCOC4=O)c(F)c3)c2Cl)C(=O)N1 (centres unmarked) [Compound 452, 3-(2-chloro-3′-fluoro-4′-(2-oxo-1,3-oxazinan-3-yl)-[1,1′-biphenyl]-3-yl)piperidine-2,6-dione] |
| 91.8 | > 90 | 15.9 | ≤ 100 | – | – | – | – | – | O=C1CCC(c2cccc(-c3ccc(N4C(=O)CCC45COC5)cc3)c2Cl)C(=O)N1 (centres unmarked) [Compound 355, 3-(2-chloro-4′-(6-oxo-2-oxa-5-azaspiro[3.4]octan-5-yl)-[1,1′-biphenyl]-3-yl)piperidine-2,6-dione] |
| 97.9 | > 90 | 3.53 | ≤ 100 | – | – | – | – | – | O=C1CCC(c2cccc(-c3ccc(N4C(=O)OCCC45CC5)cc3)c2Cl)C(=O)N1 (centres unmarked) [Compound 345, 3-(2-chloro-4′-(5-oxo-6-oxa-4-azaspiro[2.5]octan-4-yl)-[1,1′-biphenyl]-3-yl)piperidine-2,6-dione] |
| 93.3 | > 90 | 11.8 | ≤ 100 | – | – | – | – | – | Cn1ncc2c1CCC(=O)N2c1ccc(-c2cccc(C3CCC(=O)NC3=O)c2Cl)cc1 (centres unmarked) [Compound 316] |
| – | – | – | – | – | 97.7 | > 90 | 8.19 | ≤ 100 | Cn1ccc(CN2C(=O)CCc3cc(-c4cccc(C5CCC(=O)NC5=O)c4Cl)ccc32)n1 (centres unmarked) [Compound 501, 3-(2-chloro-3-(1-((1-methyl-1H-pyrazol-3-yl)methyl)-2-oxo-1,2,3,4-tetrahydroquinolin-6-yl)phenyl)piperidine-2,6-dione] |
| 46.2 | < 60 | ≥ 10000 | > 1000 | – | – | – | – | – | O=C1CCC(c2cccc(-c3ccc(Cn4cccnc4=O)nc3)c2Cl)C(=O)N1 (centres unmarked) [Compound 434, 3-(2-chloro-3-(6-((2-oxopyrimidin-1(2H)-yl)methyl)pyridin-3-yl)phenyl)piperidine-2,6-dione] |

Continued, molecule first:

| Compound | Dmax [1] [%] | Dmax [2] [%] | DC50 [3] [nM] | DC50 [4] [nM] | VAV1 Dmax %, class (luminescence read at 6 and 24 hours) | Dmax [5] [%] | Dmax [6] [%] | DC50 [7] [nM] | DC50 [8] [nM] |
| --- | --- | --- | --- | --- | --- | --- | --- | --- | --- |
| CC1(C)CN(c2cccc(-c3ccc(CC4CCC(=O)NC4=O)cc3Cl)c2)C(=O)CO1 (centres unmarked) [Compound 268] | 94.5 | – | 12.8 | ≤ 100 | A (A represents a Dmax % >90%) | – | – | – | – |
| Cn1ccc(C(=O)Nc2ccc(-c3cccc(C4CCC(=O)NC4=O)c3Cl)cc2)n1 (centres unmarked) [Compound 207, N-[4-[2-chloro-3-(2,6-dioxo-3-piperidyl)phenyl]phenyl]-1-methyl-pyrazole-3-carboxamide] | 88.7 | 60 to 90 | 34.7 | ≤ 100 | – | – | – | – | – |
| O=C1CCC(c2cccc(-c3ccc(C(=O)N4CCCC4)cc3)c2Cl)C(=O)N1 (centres unmarked) [Compound 181, 3-(2-chloro-4′-(pyrrolidine-1-carbonyl)-[1,1′-biphenyl]-3-yl)piperidine-2,6-dione] | 85.9 | 60 to 90 | 33.9 | ≤ 100 | – | – | – | – | – |
| O=C1CCC(c2cccc(-c3ccc(N4CCCCS4(=O)=O)cc3)c2Cl)C(=O)N1 (centres unmarked) [Compound 220] | 77.2 | 60 to 90 | 104 | 100 to 1000 | – | – | – | – | – |
| Cn1cc(CNc2ccc(-c3cccc(C4CCC(=O)NC4=O)c3Cl)cc2)cn1 (centres unmarked) [Compound 193, 3-(2-chloro-4′-(((1-methyl-1H-pyrazol-4-yl)methyl)amino)-[1,1′-biphenyl]-3-yl)piperidine-2,6-dione] | 91.7 | > 90 | 13.3 | ≤ 100 | – | – | – | – | – |
| O=C1CCC(c2cccc(-c3ccc(CN4CC5(F)CC(C5)C4=O)cc3)c2Cl)C(=O)N1 (centres unmarked) [Compound 269] | 96.9 | > 90 | 6.83 | ≤ 100 | – | – | – | – | – |
| COCCCOc1ccc(-c2cccc(C3CCC(=O)NC3=O)c2Cl)cc1 (centres unmarked) [Compound 126] | 91.4 | > 90 | 127 | 100 to 1000 | – | – | – | – | – |
| CN1CC(=O)N(Cc2ccc(-c3cccc(C4CCC(=O)NC4=O)c3Cl)cc2)CC1(C)C (centres unmarked) [Compound 257] | 94.2 | > 90 | 9.66 | ≤ 100 | – | – | – | – | – |
| O=C1CCC(c2cccc(-c3ccc(C4COC4)cc3)c2Cl)C(=O)N1 (centres unmarked) [Compound 198, 3-(2-chloro-4′-(oxetan-3-yl)-[1,1′-biphenyl]-3-yl)piperidine-2,6-dione] | 54.6 | < 60 | 4840 | > 1000 | – | – | – | – | – |
| Cc1cc(C)n(Cc2ccc(-c3cccc(C4CCC(=O)NC4=O)c3Cl)cc2)n1 (centres unmarked) [Compound 127] | 92.4 | > 90 | 39 | ≤ 100 | – | – | – | – | – |
| Cn1cnc(COc2ccc(-c3cccc(C4CCC(=O)NC4=O)c3Cl)cc2)c1 (centres unmarked) [Compound 183, 3-(2-chloro-4′-((1-methyl-1H-imidazol-4-yl)methoxy)-[1,1′-biphenyl]-3-yl)piperidine-2,6-dione] | 95.7 | > 90 | 5.55 | ≤ 100 | – | – | – | – | – |
| O=C1CCC(c2cccc(-c3ccc(N4CCCC4=O)cc3)c2Cl)C(=O)N1 (centres unmarked) [Compound 162, 3-(2-chloro-4′-(2-oxopyrrolidin-1-yl)-[1,1′-biphenyl]-3-yl)piperidine-2,6-dione] | 73.1 | 60 to 90 | 283 | 100 to 1000 | – | – | – | – | – |
